Assay results from US8835447B2, “Method for treating androgen receptor positive cancers” (priority 2009, dated 2014).

Test system: C4-2 tumors
Assay: C4-2 xenograft model in nude mice
Format: in vivo, mouse
Conditions: 6 daily i.p. injections, 100xIC50 dose
Source text: FIGS. 6A and 6B provide data showing anti-tumor activity of the selected hits in mouse models of androgen-independent PCa. FIG. 6A provides a graphical representation of data obtained from i.p. injection of the listed compounds or DMSO vehicle into nude mice carrying subcutaneous (s.c.) C4-2 tumors. Six daily injections were given starting when tumors were around 100 mm3 in size. There were 4-5 mice per group with two tumors per mouse. Asterisks (*) and number signs (#) are placed under the means of measurement in the c6 and c11 groups respectively which are statistically different from the control group by ANOVA test (>99%) B. C52 (9 mg/kg or 18 mg/kg) or DMSO vehicle was injected into the tail vein of nude mice carrying s.c. CWR22R tumors. Five daily injections were given starting when tumors were around 40 mm3 in size. There were 10 mice per group with one tumor per mouse. Asterisks (*) are placed under the means of measurement which are statistically different from the control group by ANOVA test (>99%). Error bars in both FIGS. 6A and B—standard deviation between the size of tumors within a given treatment group.
Testing of the anti-tumor effect of compounds in mice was done according to an IACUC-approved protocol in 8 week old male athymic nude mice from Harlan (Indianapolis, Ind.). For the C4-2 xenograft model, 10^6 C4-2 cells were injected subcutaneously (s.c.) in 2 sites of each mouse in 50% matrigel (BD Biosciences, Bradford, Mass.) in PBS. Upon development of visible tumors, they were measured using digital caliper. Tumor volume was calculated according to the formula: […]. Mice were injected with compounds i.p. daily for 6 days starting on the day when at least one tumor per mouse reached 100 mm^3 in size. Five mice per group were used. For the CWR22R xenograft model, CWR22R cells were inoculated (10^5 cells per inoculum) in 50% matrigel, one site per mouse. Treatment was started when the tumor grew to a size of at least 25 mm^3. Compounds were diluted in captisol (CyDex, Lenexa, Kans.) and delivered intravenously (to reduce “first pass” liver effect) once a day for 5 days. Ten mice per group were used. Mice were monitored daily and tumors were measured every other day. Mice were euthanized according to institutional regulations when the size of tumor reached 1000 mm^3. Comparison of the tumor growth in control and treated mice was done using ANOVA test.
We evaluated the potential anti-tumor effect of the hits using C4-2 and CWR22R xenograft models of androgen-independent PCa in nude mice. Groups of C4-2 tumor-bearing mice (4-5 mice per group, each with two tumors) were given 6 daily i.p. injections of compound (100×IC50 dose) or DMSO vehicle.

Question: Which C4-2 tumor growth does the source give for CCCn1c2ccccc2c2cc(C(C)=O)ccc21 [c52] here?
Answer: did not

Question: What about the C4-2 tumor growth (listed as C52) of the same compound?
Answer: did not show in vivo efficacy
